Numbers after ± are expanded uncertainties.
Assay: mn = molality of the nth substance listed, in mol/kg
Conditions: 101 kPa, Liquid; for viscosity: Capillary tube (Ostwald / Ubbelohde) method; for mass density: Vibrating tube method

NC(=O)c1ccccc1O [2-hydroxybenzamide] + CO
Conditions | mass density [kg/m3] | viscosity [mPa·s]
293.15 K, m1 = 0.0095 | 792.015 ± 0.14 | 0.597 ± 0.0071
293.15 K, m1 = 0.0126 | 792.215 ± 0.13 | 0.5976 ± 0.0071
293.15 K, m1 = 0.0158 | 792.352 ± 0.13 | 0.5981 ± 0.0071
293.15 K, m1 = 0.019 | 792.555 ± 0.13 | 0.5987 ± 0.0071
293.15 K, m1 = 0.0221 | 792.688 ± 0.12 | 0.5993 ± 0.0071
293.15 K, m1 = 0.0253 | 792.801 ± 0.12 | 0.5997 ± 0.0071
293.15 K, m1 = 0.0317 | 792.965 ± 0.12 | 0.6008 ± 0.0071
298.15 K, m1 = 0.0095 | 787.285 ± 0.14 | 0.5471 ± 0.0069
298.15 K, m1 = 0.0126 | 787.479 ± 0.13 | 0.5475 ± 0.0069
298.15 K, m1 = 0.0158 | 787.615 ± 0.13 | 0.548 ± 0.0069
298.15 K, m1 = 0.019 | 787.819 ± 0.13 | 0.5485 ± 0.0069
298.15 K, m1 = 0.0222 | 787.921 ± 0.12 | 0.549 ± 0.0069
298.15 K, m1 = 0.0253 | 788.019 ± 0.12 | 0.5495 ± 0.0069
298.15 K, m1 = 0.0317 | 788.218 ± 0.12 | 0.5503 ± 0.0069
303.15 K, m1 = 0.0095 | 782.541 ± 0.14 | 0.5003 ± 0.0068
303.15 K, m1 = 0.0127 | 782.725 ± 0.13 | 0.5005 ± 0.0068
303.15 K, m1 = 0.0159 | 782.859 ± 0.13 | 0.5007 ± 0.0068
303.15 K, m1 = 0.0191 | 783.029 ± 0.13 | 0.5009 ± 0.0068
303.15 K, m1 = 0.0223 | 783.149 ± 0.13 | 0.5012 ± 0.0068
303.15 K, m1 = 0.0255 | 783.261 ± 0.13 | 0.5015 ± 0.0068
303.15 K, m1 = 0.0319 | 783.449 ± 0.12 | 0.5019 ± 0.0068
308.15 K, m1 = 0.0096 | 777.775 ± 0.14 | 0.4852 ± 0.0068
308.15 K, m1 = 0.0128 | 777.951 ± 0.13 | 0.4853 ± 0.03
308.15 K, m1 = 0.016 | 778.085 ± 0.13 | 0.4855 ± 0.03
308.15 K, m1 = 0.0192 | 778.255 ± 0.13 | 0.4857 ± 0.03
308.15 K, m1 = 0.0224 | 778.368 ± 0.13 | 0.4859 ± 0.03
308.15 K, m1 = 0.0256 | 778.495 ± 0.13 | 0.4862 ± 0.03
308.15 K, m1 = 0.0321 | 778.659 ± 0.13 | 0.4866 ± 0.03
310.15 K, m1 = 0.0097 | 775.881 ± 0.21 | 0.4602 ± 0.0067
310.15 K, m1 = 0.0129 | 776.055 ± 0.13 | 0.4603 ± 0.0067
310.15 K, m1 = 0.0161 | 776.195 ± 0.13 | 0.4604 ± 0.0067
310.15 K, m1 = 0.0193 | 776.355 ± 0.14 | 0.4607 ± 0.0067
310.15 K, m1 = 0.0218 | 776.449 ± 0.13 | 0.4608 ± 0.0067
310.15 K, m1 = 0.0258 | 776.585 ± 0.12 | 0.4609 ± 0.0067
310.15 K, m1 = 0.0323 | 776.765 ± 0.18 | 0.4612 ± 0.0067
313.15 K, m1 = 0.0097 | 775.744 ± 5 | 0.4502 ± 0.0067
313.15 K, m1 = 0.013 | 775.898 ± 5 | 0.4503 ± 0.0067
313.15 K, m1 = 0.0162 | 776.045 ± 5 | 0.4504 ± 0.0067
313.15 K, m1 = 0.0194 | 776.165 ± 5 | 0.4506 ± 0.0067
313.15 K, m1 = 0.0227 | 776.285 ± 5 | 0.4508 ± 0.0067
313.15 K, m1 = 0.0259 | 776.375 ± 5 | 0.4509 ± 0.0067
313.15 K, m1 = 0.0325 | 776.558 ± 5 | 0.4511 ± 0.0067
